Results taken from US20170049716A1, “NITISINONE DOSING REGIMENS FOR THE TREATMENT OF ALKAPTONURIA” (Swedish Orphan Biovitrum International AB, priority 2014, published 2017).

Assays:
tyrosine = conditions: 2 mg daily, 20 patients, no diet restrictions, 3-year study; cited from earlier work
homogentisic acid (HGA) [1] = assay: Serum HGA (s-HGA) 24-hour profile, dose-response study in patients with AKU; format: in vivo, human; conditions: for Patients with no quantifiable serum HGA concentration in any sample over the 24-hour dosage interval: group of 8 patients, LLOQ 3.1 μmol/L
Procedure: A randomized, open-label, parallel-group dose-response study with a no-treatment control group was performed. Patients with AKU were randomized to receive either 1 mg, 2 mg, 4 mg or 8 mg nitisinone once daily (oral administration) or no treatment (control). Forty patients were randomized, equally distributed amongst the five groups (8 patients per group). Nitisinone was administered as an oral suspension containing 4 mg/mL. The following dose volumes were administered once daily, in the morning: Measurements of serum HGA (s-HGA) and tyrosine (s-Tyr) concentrations were performed at weeks 0, 2 and 4. At all visits a full 24-hour profile was determined at the following time-points: pre-dose (immediately after breakfast) and 0.5, 1,2, 3, 4, 6, 8, 10, 12, 15, 18,24 hours post-dose. The concentrations of HGA and tyrosine in the serum were measured by liquid chromatography tandem mass spectrometry (LCMSMS). The lower limit of quantification (LLOQ) for HGA was 3.1 μmol/L. Maximum and daily average serum concentrations of HGA and tyrosine were determined. The daily average concentrations were determined by dividing the area under the concentration vs. time curves, calculated by means of the trapezoidal rule, by 24.

homogentisic acid (HGA) [2] = assay: Urinary excretion of HGA over 24 hours (u-HGA24), dose-response study in patients with AKU; format: in vivo, human; conditions: for Relative decrease in u-HGA24, max / Relative decrease in u-HGA24, mean / Relative decrease in u-HGA24, median / Relative decrease in u-HGA24, min: baseline to week 4, N = 8
Procedure: A randomized, open-label, parallel-group dose-response study with a no-treatment control group was performed. Patients with AKU were randomized to receive either 1 mg, 2 mg, 4 mg or 8 mg nitisinone once daily (oral administration) or no treatment (control). Forty patients were randomized, equally distributed amongst the five groups (8 patients per group). Nitisinone was administered as an oral suspension containing 4 mg/mL. The following dose volumes were administered once daily, in the morning: Urinary excretion of HGA over a 24-hour period (u-HGA24) was assessed at weeks 0, 2 and 4. Urine was collected into 2.5-L bottles containing 30 mL of 5N H2SO4. The exact length of the collection interval and the volume of the collected urine were recorded. The concentration of HGA in the urine was measured by liquid chromatography tandem mass spectrometry (LCMSMS). The 24-hour excretion of HGA was calculated by multiplying the concentration with the volume of the collected urine, and correcting for any deviation from a 24-hour collection period. (There were no reports of missed samples within the collection interval.)

patients with AKU = conditions: 2 mg/day, 36 months; cited from earlier work
patients with HT-1 = conditions: cited from earlier work
homogentisic acid (HGA) [3] = conditions: 2 mg/day, 36 months, AKU patients; cited from earlier work
[4] = 1 mg once daily oral, Week 0 (baseline), N = 8
[5] = 1 mg once daily oral, Week 4, N = 8
[6] = 2 mg once daily oral, Week 0 (baseline), N = 8
[7] = 2 mg once daily oral, Week 4, N = 8
[8] = 4 mg once daily oral, Week 0 (baseline), N = 8
[9] = 4 mg once daily oral, Week 4, N = 8
[10] = 8 mg once daily oral, Week 0 (baseline), N = 8
[11] = 8 mg once daily oral, Week 4, N = 8

SMILES: O=C1CCCC(=O)C1C(=O)c1ccc(C(F)(F)F)cc1[N+](=O)[O-] [nitisinone, 2-[2-nitro-4-(trifluoromethyl)benzoyl]-1,3-cyclohexanedione]
- Tyrosine levels, average (tyrosine): 800 µM
- Tyrosine levels, range (tyrosine): 332 to 1528 µM
- Daily average serum concentration of HGA, max (homogentisic acid (HGA) [1]; [4]): 44.1 µmol/L
- Daily average serum concentration of HGA, mean (homogentisic acid (HGA) [1]; [4]): 34.2 µmol/L
- Daily average serum concentration of HGA, median (homogentisic acid (HGA) [1]; [4]): 33.0 µmol/L
- Daily average serum concentration of HGA, min (homogentisic acid (HGA) [1]; [4]): 25.5 µmol/L
- Daily average serum concentration of HGA, max (homogentisic acid (HGA) [1]; [5]): 7.3 µmol/L
- Daily average serum concentration of HGA, mean (homogentisic acid (HGA) [1]; [5]): 4.1 µmol/L
- Daily average serum concentration of HGA, median (homogentisic acid (HGA) [1]; [5]): 3.9 µmol/L
- Daily average serum concentration of HGA, min (homogentisic acid (HGA) [1]; [5]): 3.1 µmol/L
- Daily average serum concentration of HGA, max (homogentisic acid (HGA) [1]; [6]): 59.1 µmol/L
- Daily average serum concentration of HGA, mean (homogentisic acid (HGA) [1]; [6]): 36.6 µmol/L
- Daily average serum concentration of HGA, median (homogentisic acid (HGA) [1]; [6]): 34.2 µmol/L
- Daily average serum concentration of HGA, min (homogentisic acid (HGA) [1]; [6]): 25.1 µmol/L
- Daily average serum concentration of HGA, max (homogentisic acid (HGA) [1]; [7]): 5.8 µmol/L
- Daily average serum concentration of HGA, median (homogentisic acid (HGA) [1]; [7]): <3.1 µmol/L
- Daily average serum concentration of HGA, min (homogentisic acid (HGA) [1]; [7]): <3.1 µmol/L
- Patients with no quantifiable serum HGA concentration in any sample over the 24-hour dosage interval (homogentisic acid (HGA) [1]; 2 mg): 3
- Daily average serum concentration of HGA, max (homogentisic acid (HGA) [1]; [8]): 49.9 µmol/L
- Daily average serum concentration of HGA, mean (homogentisic acid (HGA) [1]; [8]): 38.5 µmol/L
- Daily average serum concentration of HGA, median (homogentisic acid (HGA) [1]; [8]): 37.7 µmol/L
- Daily average serum concentration of HGA, min (homogentisic acid (HGA) [1]; [8]): 28.9 µmol/L
- Daily average serum concentration of HGA, max (homogentisic acid (HGA) [1]; [9]): <3.1 µmol/L
- Daily average serum concentration of HGA, median (homogentisic acid (HGA) [1]; [9]): <3.1 µmol/L
- Daily average serum concentration of HGA, min (homogentisic acid (HGA) [1]; [9]): <3.1 µmol/L
- Patients with no quantifiable serum HGA concentration in any sample over the 24-hour dosage interval (homogentisic acid (HGA) [1]; 4 mg): 4
- Daily average serum concentration of HGA, max (homogentisic acid (HGA) [1]; [10]): 47.7 µmol/L
- Daily average serum concentration of HGA, mean (homogentisic acid (HGA) [1]; [10]): 36.6 µmol/L
- Daily average serum concentration of HGA, median (homogentisic acid (HGA) [1]; [10]): 38.6 µmol/L
- Daily average serum concentration of HGA, min (homogentisic acid (HGA) [1]; [10]): 25.2 µmol/L
- Daily average serum concentration of HGA, median (homogentisic acid (HGA) [1]; [11]): <3.1 µmol/L
- Daily average serum concentration of HGA, min (homogentisic acid (HGA) [1]; [11]): <3.1 µmol/L
- Patients with no quantifiable serum HGA concentration in any sample over the 24-hour dosage interval (homogentisic acid (HGA) [1]; 8 mg): 7
- u-HGA24, max (homogentisic acid (HGA) [2]; [4]): 69502.9 μmol/24h
- u-HGA24, mean (homogentisic acid (HGA) [2]; [4]): 36757.0 μmol/24h
- u-HGA24, median (homogentisic acid (HGA) [2]; [4]): 34034.4 μmol/24h
- u-HGA24, min (homogentisic acid (HGA) [2]; [4]): 20743.4 μmol/24h
- u-HGA24, max (homogentisic acid (HGA) [2]; [5]): 6752.8 μmol/24h
- u-HGA24, mean (homogentisic acid (HGA) [2]; [5]): 3931.0 μmol/24h
- u-HGA24, median (homogentisic acid (HGA) [2]; [5]): 3415.6 μmol/24h
- u-HGA24, min (homogentisic acid (HGA) [2]; [5]): 1847.6 μmol/24h
- Relative decrease in u-HGA24, max (homogentisic acid (HGA) [2]; 1 mg once daily oral): 91.05%
- Relative decrease in u-HGA24, mean (homogentisic acid (HGA) [2]; 1 mg once daily oral): 88.72%
- Relative decrease in u-HGA24, median (homogentisic acid (HGA) [2]; 1 mg once daily oral): 87.99%
- u-HGA24, max (homogentisic acid (HGA) [2]; [6]): 40747.2 μmol/24h
- u-HGA24, mean (homogentisic acid (HGA) [2]; [6]): 31439.8 μmol/24h
- u-HGA24, median (homogentisic acid (HGA) [2]; [6]): 31754.7 μmol/24h
- u-HGA24, min (homogentisic acid (HGA) [2]; [6]): 19994.2 μmol/24h
- u-HGA24, max (homogentisic acid (HGA) [2]; [7]): 3484.1 μmol/24h
- u-HGA24, mean (homogentisic acid (HGA) [2]; [7]): 1602.5 μmol/24h
- u-HGA24, median (homogentisic acid (HGA) [2]; [7]): 1515.6 μmol/24h
- u-HGA24, min (homogentisic acid (HGA) [2]; [7]): 627.0 μmol/24h
- Relative decrease in u-HGA24, max (homogentisic acid (HGA) [2]; 2 mg once daily oral): 96.86%
- Relative decrease in u-HGA24, mean (homogentisic acid (HGA) [2]; 2 mg once daily oral): 94.78%
- Relative decrease in u-HGA24, median (homogentisic acid (HGA) [2]; 2 mg once daily oral): 95.64%
- Relative decrease in u-HGA24, min (homogentisic acid (HGA) [2]; 2 mg once daily oral): 89.08%
- u-HGA24 (homogentisic acid (HGA) [2]; 2 mg or higher per day, with one exception): less than 2000 μmol
- u-HGA24, max (homogentisic acid (HGA) [2]; [8]): 55393.9 μmol/24h
- u-HGA24, mean (homogentisic acid (HGA) [2]; [8]): 35453.4 μmol/24h
- u-HGA24, median (homogentisic acid (HGA) [2]; [8]): 31502.7 μmol/24h
- u-HGA24, min (homogentisic acid (HGA) [2]; [8]): 14442.9 μmol/24h
- u-HGA24, max (homogentisic acid (HGA) [2]; [9]): 1478.4 μmol/24h
- u-HGA24, mean (homogentisic acid (HGA) [2]; [9]): 733.8 μmol/24h
- u-HGA24, median (homogentisic acid (HGA) [2]; [9]): 790.5 μmol/24h
- u-HGA24, min (homogentisic acid (HGA) [2]; [9]): 164.2 μmol/24h
- Relative decrease in u-HGA24, max (homogentisic acid (HGA) [2]; 4 mg once daily oral): 99.41%
- Relative decrease in u-HGA24, mean (homogentisic acid (HGA) [2]; 4 mg once daily oral): 98.15%
- Relative decrease in u-HGA24, median (homogentisic acid (HGA) [2]; 4 mg once daily oral): 98.19%
- Relative decrease in u-HGA24, min (homogentisic acid (HGA) [2]; 4 mg once daily oral): 96.74%
- u-HGA24, max (homogentisic acid (HGA) [2]; [10]): 32896.6 μmol/24h
- u-HGA24, mean (homogentisic acid (HGA) [2]; [10]): 27353.5 μmol/24h
- u-HGA24, median (homogentisic acid (HGA) [2]; [10]): 28728.7 μmol/24h
- u-HGA24, min (homogentisic acid (HGA) [2]; [10]): 17075.1 μmol/24h
- u-HGA24, max (homogentisic acid (HGA) [2]; [11]): 223.0 μmol/24h
- u-HGA24, mean (homogentisic acid (HGA) [2]; [11]): 146.3 μmol/24h
- u-HGA24, median (homogentisic acid (HGA) [2]; [11]): 140.4 μmol/24h
- u-HGA24, min (homogentisic acid (HGA) [2]; [11]): 83.1 μmol/24h
- Relative decrease in u-HGA24, max (homogentisic acid (HGA) [2]; 8 mg once daily oral): 99.70%
- Relative decrease in u-HGA24, mean (homogentisic acid (HGA) [2]; 8 mg once daily oral): 99.41%
- Relative decrease in u-HGA24, median (homogentisic acid (HGA) [2]; 8 mg once daily oral): 99.52%
- Relative decrease in u-HGA24, min (homogentisic acid (HGA) [2]; 8 mg once daily oral): 98.69%
- Decrease of urinary excretion of HGA (up to) (homogentisic acid (HGA) [2]; 8 mg per day (highest dose)): > 99%
- Suppression of the formation of HGA, estimated (homogentisic acid (HGA) [2]; 10 mg per day, estimated): almost completely
- Decrease of u-HGA in a majority of patients, estimated by extrapolation (homogentisic acid (HGA) [2]; 15 mg per day, extrapolation): about 99.9%
- Suppression of the formation of HGA (homogentisic acid (HGA) [2]; considerably higher doses than previously used in alkaptonuria): more than 99%
- u-HGA24 of one patient (homogentisic acid (HGA) [2]; one patient on 2 mg, week 4): 3484 µmol
- Effect on primary efficacy variable, hip rotation (patients with AKU): failed to show an effect
- IQ of treated children versus unaffected siblings (patients with HT-1; children treated with nitisinone (Bendadi et al.)): considerably lower
- Cognitive impairment causing schooling difficulties, patients affected (patients with HT-1; school-age patients with HT-1 treated with nitisinone (Masurel-Paulet et al.)): eight out of 23
- Reduction of urinary excretion on average, compared to pre-treatment levels (homogentisic acid (HGA) [3]): about 95%
